From patent US6358885B1, “Substituted phenylheterocyclic herbicides” (Mississippi State University, priority 1992, dated 2002)

Legend:
barnyardgrass = assay: Test B preemergence/postemergence greenhouse plant response rating 0 to 10; assay type: in vivo, Echinochloa crus-galli; conditions: for Plant response rating, Barnyardgrass: 0 to 10 scale
Outline: (§1)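 Test chemicals were sprayed onto freshly planted seed and, concurrently, onto young plants between the one and four leaf stage. After a twelve- to sixteen-day greenhouse period, each species was visually compared with untreated controls.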

chickweed = assay: as above; assay type: in vivo, Stellaria media; conditions: for Plant response rating, Chickweed: 0 to 10 scale
Outline: as §1

rape = assay: as above; assay type: in vivo, Brassica napus; conditions: 0 to 10 scale
Outline: as §1

wild buckwheat = assay: as above; assay type: in vivo, Polygonum convolvulus; conditions: 0 to 10 scale
Outline: as §1

bedstraw = assay: Test C preemergence/postemergence greenhouse plant response rating 0 to 100; assay type: in vivo, Galium aparine; conditions: PREEMERGENCE; for Plant response rating, Bedstraw: 0 to 100 scale
From the text: (§2) The compounds evaluated in this test were formulated in a non-phytoxic solvent and applied to the soil surface before plant seedlings emerged (preemergence application), to water that covered the soil surface (flood application), and to plants that were in the one-to-four leaf stage (postemergence application). A sandy loam soil was used for the preemergence and postemergence tests, while a silt loam soil was used in the flood test. Water depth was approximately 2.5 cm for the flood test and was maintained at this level for the duration of the test. Plant species in the preemergence and postemergence tests consisted of barley (Hordeum vulgare), bedstraw (Galium aparine), blackgrass (Alopecurus myosuroides), chickweed (Stellaria media), corn (Zea mays), cotton (Gossypium hirsutum), crabgrass (Digitaria sanguinalis), downy brome (Bromus tectorum), giant foxtail (Setaria faberii), lambsquarters (Chenopodium album), morningglory (Ipomoea hederacea), pigweed ([…]), rape (Brassica napus), ryegrass (Lolium multiflorum), sorghum (Sorghum bicolor), soybean (Glycine max), speedwell (Veronica persica), sugar beet (Beta vulgaris), velvetleaf (Abutilon theophrasti), wheat (Triticum aestivum), wild buckwheat (Polygonum convolvulus), and wild oat (Avena fatua). All plant species were planted one day before application of the compound for the preemergence portion-of this test. Plantings of these species were adjusted to produce plants of appropriate size for the post-emergence portion of the test. […] All plant species were grown using normal greenhouse practices. Visual evaluations of injury expressed on treated plants, when compared to untreated controls, were recorded approximately fourteen to twenty one days after application of the test compound. […] A dash (-) response means no test result.

corn = assay: as above; assay type: in vivo, Zea mays; conditions: PREEMERGENCE; for Plant response rating, Corn: 0 to 100 scale
From the text: as §2

crabgrass = assay: as above; assay type: in vivo, Digitaria sanguinalis; conditions: PREEMERGENCE; for Plant response rating, Crabgrass: 0 to 100 scale
From the text: as §2

downy brome = assay: as above; assay type: in vivo, Bromus tectorum; conditions: PREEMERGENCE; for Plant response rating Downy Brome: 0 to 100 scale
From the text: as §2

ryegrass = assay: as above; assay type: in vivo, Lolium multiflorum; conditions: PREEMERGENCE; for Plant response rating Ryegrass: 0 to 100 scale
From the text: as §2

sugar beet = assay: as above; assay type: in vivo, Beta vulgaris; conditions: PREEMERGENCE
From the text: as §2

wild oat = assay: as above; assay type: in vivo, Avena fatua; conditions: PREEMERGENCE
From the text: as §2

**Q.** `Clc1ccc(-c2nc3n(c2Cl)CCC=C3)c(Cl)c1` [Compound 1] was tested. Which “Plant response rating (0 to 10 scale), Barnyardgrass” value (barnyardgrass; POSTEMERGENCE, Rate 50 g/ha) did it give?
**A.** Its value is 2.

**Q.** What about the “Plant response rating, Barnyardgrass” value (barnyardgrass; POSTEMERGENCE, Rate 200 g/ha) of the same compound?
**A.** Its value is 3.

**Q.** What about the “Plant response rating, Barnyardgrass” value (barnyardgrass; PREEMERGENCE, Rate 50 g/ha) of the same compound?
**A.** The value was 0.

**Q.** And the “Plant response rating, Barnyardgrass” value (barnyardgrass; Rate 200 g/ha, PREEMERGENCE)?
**A.** Its value is 0.

**Q.** What about the “Plant response rating (0 to 10 scale), Chickweed” value (chickweed; POSTEMERGENCE, Rate 50 g/ha) of the same compound?
**A.** Its value is 0.

**Q.** And the “Plant response rating, Chickweed” value (chickweed; POSTEMERGENCE, Rate 200 g/ha)?
**A.** Its value is 2.

**Q.** What about the “Plant response rating, Chickweed” value (chickweed; PREEMERGENCE, Rate 50 g/ha) of the same compound?
**A.** Its value is 0.

**Q.** What about the “Plant response rating, Chickweed” value (chickweed; Rate 200 g/ha, PREEMERGENCE) of the same compound?
**A.** Its value is 0.

**Q.** What about the “Plant response rating, Rape” value (rape; POSTEMERGENCE, Rate 50 g/ha) of the same compound?
**A.** The value was 1.

**Q.** What about the “Plant response rating, Rape” value (rape; POSTEMERGENCE, Rate 200 g/ha) of the same compound?
**A.** The value was 3.

**Q.** What about the “Plant response rating, Rape” value (rape; PREEMERGENCE, Rate 50 g/ha) of the same compound?
**A.** The value was 0.

**Q.** And the “Plant response rating, Rape” value (rape; Rate 200 g/ha, PREEMERGENCE)?
**A.** The value was 0.

**Q.** And the “Plant response rating, Wild buckwheat” value (wild buckwheat; POSTEMERGENCE, Rate 50 g/ha)?
**A.** The value was 5.

**Q.** What about the “Plant response rating, Wild buckwheat” value (wild buckwheat; POSTEMERGENCE, Rate 200 g/ha) of the same compound?
**A.** Its value is 9.

**Q.** What about the “Plant response rating, Wild buckwheat” value (wild buckwheat; Rate 200 g/ha, PREEMERGENCE) of the same compound?
**A.** The value was 0.

**Q.** Which “Plant response rating, Barnyardgrass” value (barnyardgrass; POSTEMERGENCE, Rate 10 g/ha) does the source give for `CCCN1C(=O)COc2cc(F)c(-c3nn4c(c3Br)CCCC4)cc21` [Compound 63] here?
**A.** Its value is 3.

**Q.** What about the “Plant response rating, Barnyardgrass” value (barnyardgrass; POSTEMERGENCE, Rate 50 g/ha) of the same compound?
**A.** Its value is 5.

**Q.** And the “Plant response rating, Barnyardgrass” value (barnyardgrass; PREEMERGENCE, Rate 10 g/ha)?
**A.** Its value is 0.

**Q.** And the “Plant response rating, Barnyardgrass” value (barnyardgrass; PREEMERGENCE, Rate 50 g/ha)?
**A.** The value was 0.

**Q.** And the “Plant response rating, Chickweed” value (chickweed; POSTEMERGENCE, Rate 10 g/ha)?
**A.** Its value is 5.

**Q.** And the “Plant response rating, Chickweed” value (chickweed; POSTEMERGENCE, Rate 50 g/ha)?
**A.** The value was 9.

**Q.** What about the “Plant response rating, Chickweed” value (chickweed; PREEMERGENCE, Rate 10 g/ha) of the same compound?
**A.** The value was 0.

**Q.** And the “Plant response rating, Chickweed” value (chickweed; PREEMERGENCE, Rate 50 g/ha)?
**A.** Its value is 9.

**Q.** What about the “Plant response rating, Rape” value (rape; POSTEMERGENCE, Rate 10 g/ha) of the same compound?
**A.** Its value is 9.

**Q.** What about the “Plant response rating, Rape” value (rape; POSTEMERGENCE, Rate 50 g/ha) of the same compound?
**A.** Its value is 9.

**Q.** What about the “Plant response rating, Rape” value (rape; PREEMERGENCE, Rate 50 g/ha) of the same compound?
**A.** Its value is 6.

**Q.** What about the “Plant response rating, Wild buckwheat” value (wild buckwheat; POSTEMERGENCE, Rate 10 g/ha) of the same compound?
**A.** The value was 9.

**Q.** What about the “Plant response rating, Wild buckwheat” value (wild buckwheat; POSTEMERGENCE, Rate 50 g/ha) of the same compound?
**A.** Its value is 10.

**Q.** And the “Plant response rating, Wild buckwheat” value (wild buckwheat; PREEMERGENCE, Rate 50 g/ha)?
**A.** Its value is 10.

**Q.** What about the “Plant response rating, Bedstraw” value (bedstraw; 62 g/ha) of the same compound?
**A.** Its value is 100.

**Q.** What about the “Plant response rating, Bedstraw” value (bedstraw; 250 g/ha) of the same compound?
**A.** The value was 100.

**Q.** What about the “Plant response rating (0 to 100), Bedstraw” value (bedstraw; Rate 4 g/ha) of the same compound?
**A.** Its value is 0.

**Q.** What about the “Plant response rating (0 to 100), Bedstraw” value (bedstraw; Rate 16 g/ha) of the same compound?
**A.** Its value is 10.

**Q.** What about the “Plant response rating, Corn” value (corn; 62 g/ha) of the same compound?
**A.** The value was 20.

**Q.** And the “Plant response rating, Corn” value (corn; 250 g/ha)?
**A.** Its value is 30.

**Q.** And the “Plant response rating (0 to 100), Corn” value (corn; Rate 4 g/ha)?
**A.** Its value is 0.

**Q.** What about the “Plant response rating (0 to 100), Corn” value (corn; Rate 16 g/ha) of the same compound?
**A.** The value was 0.

**Q.** What about the “Plant response rating, Crabgrass” value (crabgrass; 62 g/ha) of the same compound?
**A.** Its value is 0.

**Q.** What about the “Plant response rating, Crabgrass” value (crabgrass; 250 g/ha) of the same compound?
**A.** Its value is 70.

**Q.** And the “Plant response rating (0 to 100), Crabgrass” value (crabgrass; Rate 4 g/ha)?
**A.** The value was 0.

**Q.** And the “Plant response rating (0 to 100), Crabgrass” value (crabgrass; Rate 16 g/ha)?
**A.** The value was 0.

**Q.** And the “Plant response rating Downy Brome” value (downy brome; 62 g/ha)?
**A.** The value was 20.

**Q.** What about the “Plant response rating Downy Brome” value (downy brome; 250 g/ha) of the same compound?
**A.** The value was 50.

**Q.** And the “Plant response rating (0 to 100), Downy Brome” value (downy brome; Rate 4 g/ha)?
**A.** The value was 0.

**Q.** And the “Plant response rating (0 to 100), Downy Brome” value (downy brome; Rate 16 g/ha)?
**A.** Its value is 0.

**Q.** And the “Plant response rating Ryegrass” value (ryegrass; 62 g/ha)?
**A.** Its value is 40.

**Q.** And the “Plant response rating Ryegrass” value (ryegrass; 250 g/ha)?
**A.** Its value is 80.

**Q.** And the “Plant response rating (0 to 100), Ryegrass” value (ryegrass; Rate 4 g/ha)?
**A.** Its value is 0.

**Q.** What about the “Plant response rating (0 to 100), Ryegrass” value (ryegrass; Rate 16 g/ha) of the same compound?
**A.** Its value is 0.

**Q.** And the “Plant response rating, Sugar beet” value (sugar beet; 250 g/ha, 0 to 100 scale)?
**A.** Its value is 100.

**Q.** And the “Plant response rating (0 to 100), Sugar beet” value (sugar beet; Rate 4 g/ha)?
**A.** The value was 10.

**Q.** What about the “Plant response rating (0 to 100), Sugar beet” value (sugar beet; Rate 16 g/ha) of the same compound?
**A.** Its value is 100.

**Q.** What about the “Plant response rating, Wild oat” value (wild oat; 250 g/ha, 0 to 100 scale) of the same compound?
**A.** The value was 85.

**Q.** What about the “Plant response rating (0 to 100), Wild oat” value (wild oat; Rate 4 g/ha) of the same compound?
**A.** Its value is 0.

**Q.** What about the “Plant response rating (0 to 100), Wild oat” value (wild oat; Rate 16 g/ha) of the same compound?
**A.** Its value is 0.
